What was measured:
[1] = test system: M. smithii strains DSMZ 861 (PS), 2374 (F1), 2375 (ALI) and 11975 (B181); experiment: Statin susceptibility of M. smithii strains in the PHAT system, 96-well plates, growth by optical density at 600 nm (all four strains); format: cell-based, Methanobrevibacter smithii; details: preliminary results
Protocol: A system for culturing M. smithii in 96-well plate format was designed and constructed in the following manner (See FIG. 15). Three stainless steel paint canisters (Binks, 83S-210, 2 gallon size) were modified for incubation of plates at 37° C. in an oxygen-free gas mix of 20% CO2/80% H2 at a pressure of 30 psi, where all of these growth parameters can be monitored and recorded.
The canisters are heated using Electro-Flex Heat brand Pail Heaters controlled by a custom designed controller consisting of a 16A2120 temperature/process control (Love Controls), an RTD (resistance temperature detector) probe to measure internal tank temperature, and several safety features to prevent overheating or burns.
The system is pressurized with oxygen-free gas that has flowed through a custom-built oxygen scrub. Commercially available gas mixes used for culturing M. smithii contain trace levels of oxygen that would kill the organism: thus, the gas mixture must be passed through an oxygen scrub. This scrub consists of a glass tube filled with copper mesh that is heated to 350° C. with heating tape (HTS/Amptek Duo-Tape), controlled by a benchtop power controller (HTS/Amptek BT-Z). The oxygen scrub is covered with insulating tape and secured behind a heat resistant polyetherimide case. Pressure in each tank is measured and recorded with a digital manometer (LEO record, Omni Instruments).
The system is housed inside an anaerobic chamber (COY laboratories) to allow inspection and manipulation of cultures and plates without exposing M. smithii to oxygen. Each tank can house 30 standard volume 96-well plates, which can be analyzed inside the COY anaerobic chamber with a microplate reader (BioRad) that monitors growth by measuring optical density.
1.5 μl of the stock solutions were added to wells in 96-well plates and transferred to the COY anaerobic chamber where they were kept for at least 24 hours to become anaerobic. 150 microliters of actively growing Methanobrevibacter smithii cultures were then added to each well (excluding medium+drug blanks) to bring the drug concentrations to 1 mM, 100 μM and 10 μM, respectively. The plates were incubated in the newly developed pressurized heated anaerobic tank system in a 4:1 mixture of oxygen-scrubbed H2 and CO2 at a pressure of 30 psi. Cultures grown in 1% ethanol, methanol and DMSO were used as controls. Growth was measured by determining optical density at 600 nm using the BioRad microplate reader (model 680).
Each condition was tested in triplicate with the average measurement plotted.

[2] = test system: Bacteroides thetaiotaomicron; experiment: Effect of statins on growth of B. thetaiotaomicron (FIG. 14); format: cell-based; details: statin concentration of 1 mM (FIG. 14)

Row | SMILES | inhibition of growth of M. smithii strains ([1]; 1 millimolar) | inhibition of growth of M. smithii strains ([1]; 100 micromolar) | effect on the growth of Bacteroides thetaiotaomicron [2]
1 | CC(C)c1nc(N(C)S(C)(=O)=O)nc(-c2ccc(F)cc2)c1/C=C/[C@@H](O)C[C@@H](O)CC(=O)O [rosuvastatin] | inhibit all strains tested | inhibit all strains | None of these three statins had any affect on the growth
2 | CC(C)c1c(C(=O)Nc2ccccc2)c(-c2ccccc2)c(-c2ccc(F)cc2)n1CC[C@@H](O)C[C@@H](O)CC(=O)O [atorvastatin] | inhibit all strains tested | inhibit all strains | None of these three statins had any affect on the growth

— US20130217592A1, “ARRAYS AND METHODS COMPRISING M. SMITHII GENE PRODUCTS” (THE WASHINGTON UNIVERSITY, priority 2007, published 2013)
